Key:
[1] = system: DE cells generated from hESCs; experiment: Pancreatic differentiation of hESC-derived definitive endoderm cells, QPCR of marker expression (FIG. 2); format: cell-based; conditions: for expression of pancreatic (progenitor) markers: hESC derived DE cells grown 3 days; for expression of gut (CDX2) and liver markers (AFP): hESC derived DE cells
Method: QPCR analyses showing the expression of PDX1/HLXB9/HNF6/CDX2/AFP/SOX9/PTF1A in DE cells grown for 3 days in the presence of diverse combination of Retinoic Acid (RA), SB431542 (SB) or Activin 10 ng/ml (Act), FGF10 50 ng/ml (FGF) or SU5402 10 μM (SU), and Noggin 100 ng/ml (Nog) or BMP4 10 ng/ml.
hESCs (H9 from WiCell) and hIPSCs (BBHX8, A1ATD-1, JRO1D) (Rashid S, et al. (2010) J Clin Invest 120: 3127-3136) were grown in defined culture (Brons et al (2007) Nature 448: 191-195). Cells were passaged weekly using collagenase IV and maintained in chemically defined medium (CDM) supplemented with Activin A (10 ng/ml) and FGF2 (12 ng/ml) as described previously ((Brons et al (2007)). Differentiation was carried out as described in FIG. 1. Daily media changes were made during the entire differentiation protocol. After the DE stage (stage 1), cells were cultured in Advanced DMEM (Invitrogen) supplemented with SB-431542 (10 μM; Tocris), FGF10 (50 ng/ml; AutogenBioclear), all-trans retinoic acid (RA, 2 μM; Sigma) and Noggin (50 ng/ml; R&D Systems) for 3 days. For stage 3, the cells were cultured in Advanced DMEM+human FGF10 (50 ng/ml; AutogenBioclear), all-trans retinoic acid (RA, 2 μM; Sigma), KAAD-cyclopamine (0.25 μM; Toronto Research Chemicals) and Noggin (50 ng/ml; R&D Systems) for 3 days. For Stage 4, the cells were cultured in human KGF (FGF7) or FGF10 (50 ng/ml; R&D Systems) for 3 days. For maturation of pancreatic progenitors, cells were grown in Advanced DMEM+1% vol/vol B27 and DAPT ([…]) for 3 days and for 3 additional days in Advanced DMEM+1% vol/vol B27. Alternatively, for Stage 4, the cells were cultured in human KGF (FGF7) or FGF10 (50 ng/ml; R&D Systems) and all-trans retinoic acid (RA, 2 μM; Sigma) for 3 days. Alternatively for maturation of pancreatic progenitors, cells were grown in Advanced DMEM+1% vol/vol B27, all-trans retinoic acid (RA, 2 μM; Sigma) and DAPT ([…]) for 3 days and for 3 additional days in Advanced DMEM+1% vol/vol B27 and all-trans retinoic acid (RA, 2 μM; Sigma).
(§1) Methods for RT-QPCR were described in Touboul T et al. (2010). Hepatology 51: 1754-1765. All data are presented as average of 3 independent biological triplicates and error bars indicate standard deviation.
We recently established a defined culture system to differentiate hESCs and hIPSCs into near homogenous populations of Definitive Endoderm (DE) cells (Teo A K et al. (2011) Genes Dev 25: 238-250). Importantly, this culture system relies on a chemically defined medium (CDM) devoid of animal products, including BSA, serum, complex extra cellular matrix such as Matrigel™, or feeders cells; thereby avoiding the presence of unknown factors which could interfere with experimental outcomes. To further extend this protocol, we screened a broad number of combinations of growth factors and inhibitors of signalling pathways to identify defined culture conditions driving differentiation of DE cells into pancreatic progenitors. […] We then sought to validate and optimise the role of each of these additives.

DE cells = experiment: Ventral foregut / hepatic specification of DE cells, Q-PCR of hepatic markers (FIGS. 7, 8); format: cell-based, human
From the text: as §1
During the screening of the culture conditions described above, we noted that DE cells grown in the presence of Activin acquired the appearance of foetal hepatocytes with large darkened cytoplasmic space and canaliculi-like structures. […] Alternatively, unknown signaling pathways could activate the same program of differentiation.

| Molecule | expression of pancreatic (progenitor) markers ([1]; QPCR, FIG. 2) | expression of ventral foregut / liver bud / hepatic markers (DE cells; FIGS. 7 and 8) | expression of gut (CDX2) and liver markers (AFP) ([1]; QPCR, FIG. 2) | further results |
| --- | --- | --- | --- | --- |
| CC1=C(/C=C/C(C)=C/C=C/C(C)=C/C(=O)O)C(C)(C)CCC1 [RA, (2E,4E,6E,8E)-3,7-dimethyl-9-(2,6,6-trimethylcyclohexen-1-yl)nona-2,4,6,8-tetraenoic acid] | necessary for the induction of pancreatic specification | – | – | – |
| NC(=O)c1ccc(-c2nc(-c3ccc4c(c3)OCO4)c(-c3ccccn3)[nH]2)cc1 [SB431542, 4-(5-Benzol[1,3]dioxol-5-yl-4-pyridin-2-yl-1H-imidazol-2-yl)-benzamide hydrate] | had the opposite effect | – | – | expression of ventral foregut / liver bud / hepatic markers (DE cells; FIGS. 7 and 8, hydrate): decreases the expression of hepatic markers; expression of ventral foregut / liver bud / hepatic markers (DE cells; FIGS. 7 and 8, listed as SB, hydrate): decreased the expression of HNF4α, SOX17, HEX and TBX3 |
| Cc1c[nH]c(/C=C2\C(=O)Nc3ccccc32)c1CCC(=O)O [SU5402] | did not affect the expression of pancreatic progenitor markers | decreases the expression of hepatic markers | augmented | cell death ([1]; FGF inhibition during pancreatic differentiation): significant cell death; expression of PTF1A ([1]; absence of FGF signalling, QPCR, FIG. 2): strongly reduced |
| BMP4: Bone Morphogenic Protein 4, NCBI GeneID: 652 (protein, UniProt P12644 293-408, looked up) Bone morphogenetic protein 4: SPKHHSQRARKKNKNCRRHSLYVDFSDVGWNDWIVAPPGYQAFYCHGDCPFPLADHLNSTNHAIVQTLVNSVNSSIPKACCVPTELSAISMLYLDEYDKVVLKNYQEMVVEGCGCR | significant decrease in the expression of pancreatic progenitor markers | – | inducing gut (CDX2) and liver markers (AFP) | – |
| Activin: dimeric polypeptide which stimulates the Activin/Nodal pathway (protein, UniProt P08476 311-426, looked up, Inhibin beta A chain) Inhibin beta A chain: GLECDGKVNICCKKQFFVSFKDIGWNDWIIAPSGYHANYCEGECPSHIAGTSGSSLSFHSTVINHYRMRGHSPFANLKSCCVPTKLRPMSMLYYDDGQNIIKKDIQNMIVEECGCS | abolished the expression of pancreatic markers | expressed genes marking ventral foregut | – | – |
| Noggin: BMP inhibitor (BMP antagonist protein) (protein, UniProt Q13253 28-232, looked up) Noggin: QHYLHIRPAPSDNLPLVDLIEHPDPIFDPKEKDLNETLLRSLLGGHYDPGFMATSPPEDRPGGGGGAAGGAEDLAELDQLLRQRPSGAMPSEIKGLEFSEGLAQGKKQRLSKKLRRKLQMWLWSQTFCPVLYAWNDLGSRFWPRYVKVGSCFSKRSCSVPEGMVCKPSKSVHLTVLRWRCQRRGGQRCGWIPIQYPIISECKCSC | – | decreases the expression of hepatic markers | – | HNF4 expression (DE cells; FIG. 8): moderate decrease |

From patent US9790470B2, “In vitro pancreatic differentiation of pluripotent mammalian cells” (Cambridge Enterprise Limited, priority 2012, dated 2017)
